Reference: patent publication US6677309B1, “Anti-cancer drug aldehyde conjugate drugs with enhanced cytotoxicity compounds, compositions and methods” (University Technology Corporation, priority 1997, dated 2004)
Like-named read-outs stand apart in the source and are kept apart here.

Columns and labels:
[1] = system: MCF-7 cells; assay: In vitro cytotoxicity, colony formation by crystal violet assay, MCF-7
Protocol: (§1) The term IC50 as used herein refers to the concentration of drug which inhibits cell growth by 50%, i.e., 50% of cells are viable at the IC50 concentration relative to a no-drug control.
(§2) Cells were incubated with drug for 3 h in RPMI (Roswell Park Memorial Institute) 1640 media containing 10% fetal bovine serum and 1% DMSO. Plates, were developed using the crystal violet assay. […] In all cases percent survival was determined by the extent of colony formation six days after drug treatment.
(§3) All tissue culture materials were obtained from Gibco Life Technologies (Grand Island, N.Y.) unless otherwise stated. MCF-7 breast cancer cells were obtained from American Type Culture Collection (Rockville, Md.). […] Both cell lines were maintained in vitro by serial culture in phenol red-free RPMI Media 1640 supplemented with 10% fetal bovine serum (Gemini Bio-Products, Calbasas, Calif.), L-glutamine (2 mM), HEPES buffer (10 mM), penicillin (100 units/mL), and streptomycin (100 μg/mL). […] Cells were maintained at 37° C. in a humidified atmosphere of 5% CO2 and 95% air.
(§4) Cells were dissociated with trypsin-EDTA, counted, and suspended in growth media to a concentration of 5×10^3 cells/mL. Cell suspensions were dispensed in 200 μL aliquots into 96-well tissue culture plates. Plates were then incubated for 24 h at 37° C. in a humidified atmosphere of 5% CO2 and 95% air. The media was replaced with 180 μL of growth media prior to addition of the cytotoxic agents.
(§5) Concentrations were then corrected by measuring the solution absorbance at 480 nm (ε=11,500/mole anthracycline). The solutions were then serially diluted in DMSO to give a series of 100× working concentration solutions. For each concentration, the 100× solution was diluted 1:10 in serum-free RPMI Media 1640. 20 μL of the resulting […] solution was immediately added to the appropriate lane. Additionally, one lane was treated with 20 μL of 10% DMSO in serum-free RPMI (no drug) and one lane replaced with 200 μL of 1.5 M Tris buffer (no cells). The cells were incubated at 37° C. for 3 h. The drug solutions were removed and 200 μL of fresh growth media was added to each well.
(§6) The extent of colony formation was determined by use of a crystal violet staining assay (Gilles, R. J. et al. (1986), “Determination of cell number in monolayer cultures,” Anal. Biochem. 159:109-113; Reile, H. et al. (1990), “Computerized determination of growth kinetic curves and doubling times from cells in microcultures,” Anal. Biochem. 187:262-267). […] The cells were then stained with 75 μL of 0.1% crystal violet in deionized water for 30 min. […] The plates were blotted dry and 200 μL of 70% ethanol in water was added to each well to solublize the dye. The plates were stored at 4° C. until solubilization was complete (about 4 h). The optical density of each well was measured on an ELISA plate reader at 588 nm. Relative colony sizes were determined by comparison of the drug treated lanes to the control lanes.
(§7) MCF-7 breast cancer cells were obtained from American Type Culture Collection (Rockville, Md.). MCF-7/ADR adriamycin resistant breast cancer cells were a gift of Dr. William W. Wells (Michigan State University). Both cell lines were maintained in vitro by serial culture in phenol red-free RPMI Media 1640 supplemented with 10% fetal bovine serum (Gemini Bio-Products, Calbasas, Calif.), L-glutamine (2 mM), HEPES buffer ([…]), penicillin (100 units/mL), and streptomycin (100 μg/mL). […] Cells were maintained at 37° C. in a humidified atmosphere of 5% CO2 and 95% air.
1640 media containing 10% fetal bovine serum. The resulting 90% media/10% DMSO solutions (v/v) were incubated at 37° C. for 6h.

[2] = system: PC-3; assay: Prostate cancer cell cytotoxicity, crystal violet assay, PC-3; assay type: cell-based, human; conditions: Homo sapiens
Protocol: (§8) Toxicity to the three prostate cancer cell lines, LNCaP, DU-145, and PC-3 were measured in two different media, RPMI-1640 and DMEM (Dulbecco's Modified Eagle Medium), both supplemented with 10% fetal bovine serum.
(§9) Cell lines were maintained in vitro in RPMI 1640 media or DMEM, each supplemented with 10% fetal bovine serum, 2 mM L-glutamine, 10 mM HEPES buffer, penicillin (100 units/mL) and streptomycin (100 μg/mL).
(§10) Cells were dissociated with trypsin/EDTA, counted, and suspended in growth media (RPMI or DMEM) to a concentration of 5.6×10^3 cells/mL. Cell suspensions were dispensed in 180 μL aliquots into 96-well tissue culture plates. […] Each 100× solution was diluted 10× in growth media (RPMI or DMEM), and a 20 μL aliquot of the resulting 10× solution was immediately (<10s) added to-the appropriate lane. Additionally, one lane was treated with 20 μL of 10% DMSO in growth media (no drug) and one lane was treated with 200 μL of 1.5 M Tris buffer (no cells). The cells were incubated with the drugs for 3 h at 37° C. The drug solutions were then removed and replaced with 200 μL of fresh media. The cells were incubated for 4 days (7 days for PC-3 cells in DMEM) at 37° C. in a humidified atmosphere of 5% CO2 and 95% air. Cell survival was determined using a crystal violet assay as described earlier (Fenick, D. J. et al (1997) J. Med. Chem. 40: 2452-2461).

[3] = Hydrolysis in aqueous phosphate buffer, HPLC; assay type: physicochemical; conditions: serum; read-out: estimated half-life
Protocol: See Example 16. […] The DMSO was present to increase solubility.
Second, the kinetics of hydrolysis were measured in pH 6.0 phosphate buffer.
A 960 μL solution of pH 7.3 phosphate buffer was heated to 37° C. […] No change in the chromatography was observed if pH, 7.3 phosphate buffer was used as the eluent in place of pH 7.4 TEAA buffer.

[4] = system: LNCaP; assay: Prostate cancer cell cytotoxicity, crystal violet assay, LNCaP; assay type: cell-based, human; conditions: Homo sapiens, LNCaP
Protocol: as §8, §9, §10

[5] = system: DU-145; assay: Prostate cancer cell cytotoxicity, crystal violet assay, DU-145; assay type: cell-based, human; conditions: Homo sapiens
Protocol: as §8, §9, §10

[6] = system: MCF-7/ADR cells; assay: In vitro cytotoxicity, colony formation by crystal violet assay, MCF-7/ADR
Protocol: as §1, §2, §3, §4, §5, §6, §7
These were then diluted 10× with autoclaved Millipore water.

[7] = Stability in DMSO and DMSO/water, NMR or HPLC; assay type: physicochemical; conditions: HPLC
Protocol: Crystalline dimeric formaldehyde conjugate of daunorubicin (2.8 mg, 2.6 μmol) was dissolved in 500 μL of DMSO-d6 (stored over 3 A molecular sieves) and analyzed by 400 MHz, ^1H NMR. […] Upon addition of 25 μL of D2O to the 500 μL DMSO-d6 sample, the dimeric formaldehyde conjugate of daunorubicin reacted over a 24 h period to form an equilibrium mixture consisting of 67% dimeric formaldehyde conjugate of daunorubicin and 32% of an intermediate. Because of the complexity of the spectrum, a structure could not be assigned to the intermediate; however, the intermediate appeared to have an oxazolidine ring. Upon addition of 3 equiv of hydrochloric acid in 130 μL of deuterium oxide, hydrolysis to daunorubicin-HCl was complete. The hydrochloric acid solution was prepared by the addition of 10 μL of concentrated HCl to 990 μL of D2O. The formaldehyde released from the dimeric formaldehyde conjugate of daunorubicin was detected as its hydrate. The final product was identified as daunorubicin by comparison of the NMR spectrum with that of a sample of daunorubicin plus 3 equiv of HCl. Further, the final product was isolated by removal of all volatile components under vacuum (0.1 Torr), and its ^1H NMR spectrum was identical to that of daunorubicin-HCl.
Amorphous dimeric formaldehyde conjugate of daunorubicin, when worked up in methylene chloride, was stable in DMSO for at least 4 days. It hydrolyzed with added D2O and hydrochloric acid in a manner similar to that of the crystalline material. When worked up in chloroform, amorphous dimeric formaldehyde conjugate of daunorubicin had less stability in DMSO, presumably due to traces of HCl from the chloroform.
A 1.3 mg sample of N-acetyl-3′-N,4′-O-methylenedaunorubicin was dissolved in […] of DMSO and analyzed over time by HPLC. […] At this time, […] of water was added to the DMSO/N-acetyl monomeric formaldehyde conjugate of daunorubicin solution, establishing a 50:50 DMSO:water mixture (v/v). In this solution, the N-acetyl-3′-N,4′-O-methylenedaunorubicin remained 91% intact (9% degradation to daunorubicin) over a period of 6 days, based upon the HPLC analysis.
A pH 6 triethyl ammonium acetate solution containing 13.1 μmol of epidoxorubicin-HCl and 6.6 mmol of […] was allowed to react in the dark at 25° C. for 30 min. The mixture was then extracted with chloroform with vigorous stirring for 20 min. The chloroform solution was dried over sodium sulfate and the chloroform removed by rotary evaporation. The resulting dry solid was redissolved in 1.0 mL of chloroform. To this was added 10 mL of n-hexane. After 2 days, a large amount of precipitate had formed, which was washed with 3×5 mL of n-hexane, followed by 4×1 mL of water.
The sample was maintained at ambient temperature for 2 h; after this period no change in the spectrum was observed. […] A stock 122 mM solution of HCl in D2O was prepared by adding concentrated hydrochloric acid to D2O. […] Complete hydrolysis occurred upon addition of ca. 2-3 equiv of HCl. A similar experiment was performed using HCl in H2O. […] This solution was incubated at 37° C. for 24 h prior to NMR analysis.

[8] = relative to the respective parent drug
[9] = 50:50 DMSO:water (v/v), over 6 days

Compound | IC50 ([1]; Homo sapiens, MCF7, read-out: IC50 Values, MCF-7) [nM] | times more cytotoxic against the MCF-7 cell line than the parent drug ([1]; relative to daunorubicin and doxorubicin, respectively) [times] | fold more toxic to MCF-7 cells than the parent drug [1, 8] [fold] | IC50 ([2]; PC-3, read-out: IC50 Values, PC-3/DMEM) [nM] | IC50 ([2]; PC-3, read-out: IC50 Values, PC-3/RPMI-1640) [nM] | half-life [3] [min] | IC50 ([4]; read-out: IC50 Values, LNCaP/DMEM) [nM] | IC50 ([4]; read-out: IC50 Values, LNCaP/RPMI-1640) [nM] | IC50 ([5]; DU-145, read-out: IC50 Values, DU-145/DMEM) [nM] | IC50 ([5]; DU-145, read-out: IC50 Values, DU-145/RPMI-1640) [nM] | IC50 ([6]; Homo sapiens, NCI/ADR-RES, read-out: IC50 Values, MCF-7-ADR) [nM] | fold higher cytotoxicity against MCF-7/ADR cells relative to the parent drug [6, 8] | degradation to daunorubicin [7, 9] [%] | fraction remaining intact [7, 9] [%] | degradation in DMSO solution ([7]; DMSO, after 2 h)
COc1cccc2c1C(=O)c1c(O)c3c(c(O)c1C2=O)CC(O)(C(=O)CO)CC3OC1CC2C(OCN2CN2CO[C@@H]3C(C)O[C@H](OC4CC(O)(C(=O)CO)Cc5c(O)c6c(c(O)c54)C(=O)c4c(OC)cccc4C6=O)CC32)C(C)O1 (stereo partly drawn) [DOXF, bis(3′-N-(3′-N,4′-O-methylenedoxorubicinyl))methane] | 1 | 150 | 150 | 4.5 | 0.5 | < 10 | 0.5 | 0.5 | 1.5 | 2 | 0.5 | 10,000 fold |  |  | 
N-acetyl-3′-N,4′-O-methylenedaunorubicin |  |  |  |  |  |  |  |  |  |  |  |  | 9 | 91 | no degradation
